{"source": "PubChem BioAssay AID1919010", "about": "(Molecular Pharmacology Branch, DTP, NCI, 2023)", "system": "Hs578T complex spheroid growth, percent test/control", "test": "Anticancer human tumor Hs578T cell line growth inhibition [AhR];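 for all read-outs here: luminescent viability signal as a proxy for spheroid growth; spheroids exposed to agents for one week after three days of growth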", "details": "for IC50: curve of first compound; for viability, T/C: stronger effect = lower value", "procedure,_shortened": "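Agents were dosed in half-log steps down from roughly clinical Cmax, or from 10 microM where Cmax was unknown, alone and with AhR antagonists. Read-out: percent test/control growth of tumor spheroids containing HUVEC and MSC stromal cells.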", "key": {"[1]": {"details": "second compound 0.1 µM, first compound 0.0316 µM"}, "[2]": {"details": "second compound 0.1 µM, first compound 0.1 µM"}, "[3]": {"details": "second compound 0.1 µM, first compound 0.316 µM"}, "[4]": {"details": "second compound 0.1 µM, first compound 1 µM"}, "[5]": {"details": "second compound 0.316 µM, first compound 0.0316 µM"}, "[6]": {"details": "second compound 0.316 µM, first compound 0.1 µM"}, "[7]": {"details": "second compound 0.316 µM, first compound 0.316 µM"}, "[8]": {"details": "second compound 0.316 µM, first compound 1 µM"}, "[9]": {"details": "second compound 1 µM, first compound 0.0316 µM"}, "[10]": {"details": "second compound 1 µM, first compound 0.1 µM"}, "[11]": {"details": "second compound 1 µM, first compound 0.316 µM"}, "[12]": {"details": "second compound 1 µM, first compound 1 µM"}, "[13]": {"details": "second compound 3.16 µM, first compound 0.0316 µM"}, "[14]": {"details": "second compound 3.16 µM, first compound 0.1 µM"}, "[15]": {"details": "second compound 3.16 µM, first compound 0.316 µM"}, "[16]": {"details": "second compound 3.16 µM, first compound 1 µM"}, "[17]": {"details": "second compound 10 µM, first compound 0.0316 µM"}, "[18]": {"details": "second compound 10 µM, first compound 0.1 µM"}, "[19]": {"details": "second compound 10 µM, first compound 0.316 µM"}, "[20]": {"details": "second compound 10 µM, first compound 1 µM"}}}
{"compound": "CC1COCCN1c1cc(-c2ccnn2C)c2ccnc(-c3ccn[nH]3)c2n1", "note": "(stereo not given) + Cc1cncc(-c2nc(NCCc3c[nH]c4ccccc34)c3ncn(C(C)C)c3n2)c1", "values": [{"measurement": "IC50", "setting": "second compound 0.1 µM", "result": 589, "unit": "nM"}, {"measurement": "IC50", "setting": "second compound 0.316 µM", "result": 662, "unit": "nM"}, {"measurement": "IC50", "setting": "second compound 1 µM", "result": 342, "unit": "nM"}, {"measurement": "IC50", "setting": "second compound 3.16 µM", "result": 104, "unit": "nM"}, {"measurement": "IC50", "setting": "second compound 10 µM", "result": "< 3.16", "unit": "nM"}, {"measurement": "viability, T/C", "setting": "second compound 0.1 µM, first compound 0.00316 µM", "result": 109, "unit": "%"}, {"measurement": "viability, T/C", "setting": "second compound 0.1 µM, first compound 0.01 µM", "result": 117, "unit": "%"}, {"measurement": "viability, T/C", "setting": "[1]", "result": 109, "unit": "%"}, {"measurement": "viability, T/C", "setting": "[2]", "result": 96.8, "unit": "%"}, {"measurement": "viability, T/C", "setting": "[3]", "result": 55.8, "unit": "%"}, {"measurement": "viability, T/C", "setting": "[4]", "result": 45.1, "unit": "%"}, {"measurement": "viability, T/C", "setting": "second compound 0.316 µM, first compound 0.00316 µM", "result": 108, "unit": "%"}, {"measurement": "viability, T/C", "setting": "second compound 0.316 µM, first compound 0.01 µM", "result": 116, "unit": "%"}, {"measurement": "viability, T/C", "setting": "[5]", "result": 109, "unit": "%"}, {"measurement": "viability, T/C", "setting": "[6]", "result": 91.8, "unit": "%"}, {"measurement": "viability, T/C", "setting": "[7]", "result": 57.2, "unit": "%"}, {"measurement": "viability, T/C", "setting": "[8]", "result": 46, "unit": "%"}, {"measurement": "viability, T/C", "setting": "second compound 1 µM, first compound 0.00316 µM", "result": 109, "unit": "%"}, {"measurement": "viability, T/C", "setting": "second compound 1 µM, first compound 0.01 µM", "result": 116, "unit": "%"}, {"measurement": "viability, T/C", "setting": "[9]", "result": 103, "unit": "%"}, {"measurement": "viability, T/C", "setting": "[10]", "result": 81.7, "unit": "%"}, {"measurement": "viability, T/C", "setting": "[11]", "result": 50.6, "unit": "%"}, {"measurement": "viability, T/C", "setting": "[12]", "result": 38.5, "unit": "%"}, {"measurement": "viability, T/C", "setting": "second compound 3.16 µM, first compound 0.00316 µM", "result": 62.9, "unit": "%"}, {"measurement": "viability, T/C", "setting": "second compound 3.16 µM, first compound 0.01 µM", "result": 65, "unit": "%"}, {"measurement": "viability, T/C", "setting": "[13]", "result": 58.8, "unit": "%"}, {"measurement": "viability, T/C", "setting": "[14]", "result": 51.3, "unit": "%"}, {"measurement": "viability, T/C", "setting": "[15]", "result": 35.1, "unit": "%"}, {"measurement": "viability, T/C", "setting": "[16]", "result": 37.7, "unit": "%"}, {"measurement": "viability, T/C", "setting": "second compound 10 µM, first compound 0.00316 µM", "result": 4.51, "unit": "%"}, {"measurement": "viability, T/C", "setting": "second compound 10 µM, first compound 0.01 µM", "result": 3.84, "unit": "%"}, {"measurement": "viability, T/C", "setting": "[17]", "result": 4.82, "unit": "%"}, {"measurement": "viability, T/C", "setting": "[18]", "result": 4.52, "unit": "%"}, {"measurement": "viability, T/C", "setting": "[19]", "result": 4.47, "unit": "%"}, {"measurement": "viability, T/C", "setting": "[20]", "result": 7.62, "unit": "%"}]}
{"compound": "COc1ccc([C@@H](O)c2cc(-c3ncnc4cc(N5CCOCC5)ccc34)c(F)cc2Cl)nn1", "note": "+ Cc1cncc(-c2nc(NCCc3c[nH]c4ccccc34)c3ncn(C(C)C)c3n2)c1", "values": [{"measurement": "IC50", "setting": "second compound 0.1 µM", "result": 5740, "unit": "nM"}, {"measurement": "IC50", "setting": "second compound 0.316 µM", "result": 5830, "unit": "nM"}, {"measurement": "IC50", "setting": "second compound 1 µM", "result": 5990, "unit": "nM"}, {"measurement": "IC50", "setting": "second compound 3.16 µM", "result": 2560, "unit": "nM"}, {"measurement": "IC50", "setting": "second compound 10 µM", "result": "< 31.6", "unit": "nM"}, {"measurement": "viability, T/C", "setting": "[1]", "result": 108, "unit": "%"}, {"measurement": "viability, T/C", "setting": "[2]", "result": 115, "unit": "%"}, {"measurement": "viability, T/C", "setting": "[3]", "result": 104, "unit": "%"}, {"measurement": "viability, T/C", "setting": "[4]", "result": 86, "unit": "%"}, {"measurement": "viability, T/C", "setting": "second compound 0.1 µM, first compound 3.16 µM", "result": 61, "unit": "%"}, {"measurement": "viability, T/C", "setting": "second compound 0.1 µM, first compound 10 µM", "result": 40.3, "unit": "%"}, {"measurement": "viability, T/C", "setting": "[5]", "result": 112, "unit": "%"}, {"measurement": "viability, T/C", "setting": "[6]", "result": 114, "unit": "%"}, {"measurement": "viability, T/C", "setting": "[7]", "result": 109, "unit": "%"}, {"measurement": "viability, T/C", "setting": "[8]", "result": 92.5, "unit": "%"}, {"measurement": "viability, T/C", "setting": "second compound 0.316 µM, first compound 3.16 µM", "result": 59, "unit": "%"}, {"measurement": "viability, T/C", "setting": "second compound 0.316 µM, first compound 10 µM", "result": 42.1, "unit": "%"}, {"measurement": "viability, T/C", "setting": "[9]", "result": 103, "unit": "%"}, {"measurement": "viability, T/C", "setting": "[10]", "result": 118, "unit": "%"}, {"measurement": "viability, T/C", "setting": "[11]", "result": 102, "unit": "%"}, {"measurement": "viability, T/C", "setting": "[12]", "result": 84.8, "unit": "%"}, {"measurement": "viability, T/C", "setting": "second compound 1 µM, first compound 3.16 µM", "result": 58.6, "unit": "%"}, {"measurement": "viability, T/C", "setting": "second compound 1 µM, first compound 10 µM", "result": 43.4, "unit": "%"}, {"measurement": "viability, T/C", "setting": "[13]", "result": 68.6, "unit": "%"}, {"measurement": "viability, T/C", "setting": "[14]", "result": 61, "unit": "%"}, {"measurement": "viability, T/C", "setting": "[15]", "result": 64.8, "unit": "%"}, {"measurement": "viability, T/C", "setting": "[16]", "result": 56.2, "unit": "%"}, {"measurement": "viability, T/C", "setting": "second compound 3.16 µM, first compound 3.16 µM", "result": 48.4, "unit": "%"}, {"measurement": "viability, T/C", "setting": "second compound 3.16 µM, first compound 10 µM", "result": 36.1, "unit": "%"}, {"measurement": "viability, T/C", "setting": "[17]", "result": 5, "unit": "%"}, {"measurement": "viability, T/C", "setting": "[18]", "result": 4.23, "unit": "%"}, {"measurement": "viability, T/C", "setting": "[19]", "result": 5.09, "unit": "%"}, {"measurement": "viability, T/C", "setting": "[20]", "result": 5.36, "unit": "%"}, {"measurement": "viability, T/C", "setting": "second compound 10 µM, first compound 3.16 µM", "result": 7.09, "unit": "%"}, {"measurement": "viability, T/C", "setting": "second compound 10 µM, first compound 10 µM", "result": 9.8, "unit": "%"}]}
